Measurements published in patent US20240239818A1, “COMPOUNDS AND COMPOSITIONS COMPRISING FLUOROPHORES FOR USE IN VISUALIZATION AND PURIFICATION OR MANIPULATION” (priority 2022, published 2024).

Columns and labels:
HaloTag® protein (HT7) = biological target: T1, HaloTag® protein (HT7) (Rhodococcus rhodochrous, UniProt P0A3G2, A155T/A167V/A172T/A224E/C128F/C176G/D78G/E160K/E257K/H272N/K175M/K195N/L47V/L88M/N227D/S58T/T264A/Y273L/Y87F); test: 1-Photon spectroscopy and quantum yield of HaloTag® conjugates; type: physicochemical; settings: absence vs presence of excess HaloTag® protein
T1 construct: 6xHis (N); T7 tag (gene 10 leader) (N); Xpress tag (N); made in house; host or cells: bacterial expression (vector pRSET-A)
T1 sequence (P0A3G2 other isoform, or with tags, fused parts or gaps with the stated changes): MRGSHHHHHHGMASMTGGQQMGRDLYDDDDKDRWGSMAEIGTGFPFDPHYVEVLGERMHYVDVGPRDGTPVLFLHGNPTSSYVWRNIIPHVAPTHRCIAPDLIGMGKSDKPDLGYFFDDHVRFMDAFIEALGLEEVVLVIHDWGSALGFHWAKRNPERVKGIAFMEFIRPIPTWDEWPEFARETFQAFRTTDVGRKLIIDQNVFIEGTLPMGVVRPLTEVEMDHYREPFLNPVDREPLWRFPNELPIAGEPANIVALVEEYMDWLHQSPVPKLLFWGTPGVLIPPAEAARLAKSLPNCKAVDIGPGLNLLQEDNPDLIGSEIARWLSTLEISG
Protocol: HaloTag® protein purification. The bacterial expression vector pRSET-A (Invitrogen) was used to recombinantly express HaloTag® protein (HT7; Promega).^45 The soluble 6×His-Tagged HaloTag® protein was affinity purified by immobilized metal affinity chromatography (IMAC) on a 5-mL Fast Flow HiTrap Sepharose 6 column (Cytiva) with a 0-200 mM imidazole elution gradient using an Avant Protein Purification System (ÄKTA). A280 peak fractions were pooled, concentrated by a spin concentrator, and dialyzed 3× into tris-buffered saline (TBS). The amino acid sequence of HaloTag® protein (HT7) expressed from pRSET-A is SEQ ID NO: 1.
1-Photon spectroscopy of HaloTag® ligands and HaloTag® conjugates. […] All measurements were taken at ambient temperature (22 ±2° C.). Absorption spectra were recorded on a Cary Model 100 spectrometer (Agilent) using 1-cm path length 1.0-mL quartz microcuvettes from Starna Cells. Fluorescence spectra were recorded on a Cary Eclipse fluorometer (Varian) using 1-cm path length 3.5-mL quartz cuvettes (Starna Cells). […] An aliquot of HaloTag® protein (1.5 equiv) was added, and the resulting mixture was incubated until a consistent absorbance signal was observed (60-120 min). To measure the fold-increase of absorbance upon HaloTag® binding, a “no HaloTag®” control experiment was performed where an equivalent volume of TBS blank was added in place of the protein. […]

[1] = biological target: T2, HaloTag®-PDGFR fusion protein (Rhodococcus rhodochrous, UniProt P0A3G2, A155T/A167V/A172T/A224E/C128F/C176G/D78G/E160K/E257K/H272N/K175M/K195N/L47V/L88M/N227D/S58T/T264A/Y273L/Y87F); test: Live-cell labeling of cell surface HaloTag® fusion in U2OS cells (Airyscan fluorescence microscopy); type: cell-based; settings: 100 nM, 1 h
T2 construct: expressed in transfected cells; host or cells: U2OS, transient nucleofection
T2 sequence (P0A3G2 other isoform, or with tags, fused parts or gaps with the stated changes): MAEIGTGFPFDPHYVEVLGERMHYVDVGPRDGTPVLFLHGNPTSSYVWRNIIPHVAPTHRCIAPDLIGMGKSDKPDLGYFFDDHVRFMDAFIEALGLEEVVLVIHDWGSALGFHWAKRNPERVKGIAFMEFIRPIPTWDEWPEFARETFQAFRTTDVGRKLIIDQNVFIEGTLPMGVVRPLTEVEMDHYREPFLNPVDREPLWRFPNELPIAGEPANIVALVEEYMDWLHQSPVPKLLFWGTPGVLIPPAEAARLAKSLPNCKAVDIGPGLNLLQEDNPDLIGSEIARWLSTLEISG
Protocol: (§1) U2OS cell culture, labeling, and fluorescence microscopy. U2OS cells (ATCC) were cultured in Dulbecco's modified Eagle medium (DMEM, phenol red-free; Life Technologies) supplemented with 10% (v/v) fetal bovine serum (FBS, Life Technologies), 1 mM GlutaMAX (Life Technologies) and maintained at 37° C. in a humidified 5% (v/v) CO2 environment. These cell lines undergo regular mycoplasma testing by the Janelia Cell Culture Facility. U2OS cells stably expressing an integrated HaloTag®-histone H2B fusion protein (U2OS.H2B.HaloTag®) were used for nuclear imaging and imaged 18-24 h post-plating. […]
(§2) Live cell imaging with biotin-rhodamine HaloTag® ligands. Having evaluated biotin ligands 12-15 in vitro, their ability to label HaloTag® fusions in live mammalian cells was tested. […] Quantification of the intracellular fluorescence signal from JF549 and msGFP channel further confirmed the poor labeling from 12 (FIG. 9).

[2] = system: HaloTag®-TOMM20, HaloTag®-Sec61β, HaloTag®-histone H2B fusion proteins; type: cell-based
Protocol: as §1, §2

Compound	fluorogenicity upon conjugation to the HaloTag® protein (fold-increase of absorbance) (HaloTag® protein (HT7)) [×]	labeling of extracellular HaloTag®-PDGFR fusion [1]	cell-permeability [2]	labeling of intracellular HaloTag® fusions ([2]; live U2OS cells, 100 nM, 1 h, mitochondria, ER, nucleus)
C[Si]1(C)C2=CC(=[N+]3CC(C(=O)NCCOCCOCCNC(=O)CCCC[C@@H]4SC[C@@H]5NC(=O)N[C@@H]54)C3)C=CC2=C(c2cc(C(=O)NCCOCCOCCCCCCCl)ccc2C(=O)[O-])c2ccc(N3CCC3)cc21 (some centres unmarked) [compound 14, Biotin-JF646-HaloTag® ligand]	2.5	–	–	–
Biotin-JF549-HaloTag® ligand [compound 12]	–	robust labeling of the cellular membrane	poor cell-permeability	did not show an appreciable signal
C[Si]1(C)C2=CC(=[N+]3CC(F)(C(=O)NCCOCCOCCNC(=O)CCCC[C@@H]4SC[C@@H]5NC(=O)N[C@@H]54)C3)C=CC2=C(c2cc(C(=O)NCCOCCOCCCCCCCl)ccc2C(=O)[O-])c2ccc(N3CC(F)C3)cc21 (some centres unmarked) [compound 15, Biotin-JF635-HaloTag® ligand]	14.7	–	–	–
